In patent publication US20070027181A1, “Benzylisoquinoline derivative- or bisbenzylisoquinoline derivative-containing psychotropic agent, analgesic and/or antiphlogistic, and health food” (EDUCATION CENTER OF TRADITIONAL, priority 2004, published 2007):

What was measured:
mice [1] = assay: elevated plus-maze test (antianxiety action); type: in vivo, Male ICR mice; conditions: 100 mg/kg i.p., 30 minutes after administration
Description: In the following Examples, all extracts and drugs used were dissolved in physiological saline before use for i.p. administration and the dose was 0.1 ml of physiological saline per 10 g of mouse body weight in either case. All extracts and drugs were suspended in physiological saline containing 1% sodium carboxymethylcellulose before use for oral administration and the dose was 0.1 ml of 1% sodium carboxymethylcellulose-containing physiological saline suspension per 10 g of mouse body weight in either case. […]
An elevated plus-maze (Neuroscience Inc.) consisting of 2 arms without high walls and 2 arms enclosed by high walls, which were crossing perpendicular to each other, was used for evaluation. A mouse was placed on the platform at the center in a position facing toward an arm without walls, and the number of times the mouse entered into both arms and the period of the mouse staying in the arms without walls were determined during a period of 5 minutes. The results were evaluated by the ratio (%) of the number of the mouse entering into the arms without walls to the total number of entering into both arms and by the ratio (%) of the period of the mouse staying in the arms without walls to the test period. […]

mice [2] = assay: thiopental sleep-enhancing test; type: in vivo, Male ICR mice; conditions: 50 mg/kg i.p. 15 minutes before thiopental 60 mg/kg i.p.
Description: Actions on thiopental sleep by various compounds were evaluated. Thiopental dissolved in physiological saline was administered intraperitoneally into mice at a dose of 60 mg/kg. […] The time when the righting reflex of the mice disappeared after thiopental administration was designated as sleep-induction time and the time when the righting reflex was restored was designated as awakening time, and total sleep time was calculated from these values.

[3] = Seibu et al., Journal of Natural Products 49 (1986); no specific data; cited from earlier work
mice [4] = assay: suppression of the enhancement of ultromotivity by methamphetamine; type: in vivo, Male ICR mice; conditions: methamphetamine 1 mg/kg 15 minutes later, 60 minutes
Description: In the following Examples, all extracts and drugs used were dissolved in physiological saline before use for i.p. administration and the dose was 0.1 ml of physiological saline per 10 g of mouse body weight in either case. All extracts and drugs were suspended in physiological saline containing 1% sodium carboxymethylcellulose before use for oral administration and the dose was 0.1 ml of 1% sodium carboxymethylcellulose-containing physiological saline suspension per 10 g of mouse body weight in either case. Male ICR mice (Japan SLC) having a body weight of 25 to 30 g were used in the tests below unless otherwise stated, and were fed in advance at a room temperature of 23±1° C. and a relative humidity of 55±5% in the environment of a cycle of 12-hour-light from 7 a.m. to 7 p.m. and 12-hour-dark from 7 p.m. to 7 a.m. for 3 to 5 days. […]
Fifteen mice were grouped into three groups of five mice, to which 50 mg/kg of neferine hydrochloride (treatment group 3-1), 100 mg/kg of the same (treatment group 3-2), and only physiological saline (negative control group) were administered respectively intraperitoneally. […] After administration of methamphetamine, each of the mice was placed in a transparent polycarbonate cage (22.5 cm×33.8 cm×14.0 cm), where the ultromotivity of the mouse was analyzed for 60 minutes by using a locomotor activity analyzer (NS-AS01, Neuroscience Inc.).

mice [5] = assay: histamine-induced paw edema test; type: in vivo, Male ICR mice; conditions: 100 mg/kg i.p. 30 minutes before histamine 10 μg; 12 minutes after histamine
Description: In the following Examples, all extracts and drugs used were dissolved in physiological saline before use for i.p. administration and the dose was 0.1 ml of physiological saline per 10 g of mouse body weight in either case. All extracts and drugs were suspended in physiological saline containing 1% sodium carboxymethylcellulose before use for oral administration and the dose was 0.1 ml of 1% sodium carboxymethylcellulose-containing physiological saline suspension per 10 g of mouse body weight in either case. Male ICR mice (Japan SLC) having a body weight of 25 to 30 g were used in the tests below unless otherwise stated, and were fed in advance at a room temperature of 23±1° C. and a relative humidity of 55±5% in the environment of a cycle of 12-hour-light from 7 a.m. to 7 p.m. and 12-hour-dark from 7 p.m. to 7 a.m. for 3 to 5 days. The mice were allowed to have water and feed freely.
Six mice per group were used. […] The thickness of the right hind paw was measured immediately before histamine administration and 12 minutes after histamine administration. The thickness immediately before administration was subtracted from the thickness of the paw after histamine administration, and this was adopted as a thickness of paw edema. As apparent from TABLE 18, paw edema due to histamine was suppressed by neferine. […]

## COc1ccc(C[C@@H]2c3cc(Oc4cc(C[C@@H]5c6cc(OC)c(OC)cc6CCN5C)ccc4O)c(OC)cc3CCN2C)cc1 [neferine]
Mice [1]; entries into arms without walls / total entries
  Invasion times (%): 70%
Mice [1]; period in arms without walls / test period
  Staying period (%): 33%
Mice [2]
  Total sleep time: 100 min
[3]
  antihypertensive action: exhibited an antihypertensive action
Mice [4]; 50 mg/kg i.p.
  Ultromotivity (count): 2600 count
Mice [4]; 100 mg/kg i.p.
  Ultromotivity (count): 1800 count
Mice [5]
  Thickness of paw edema (mm): 0.32 ± 0.03 mm
